Like-named read-outs stand apart in the source and are kept apart here. Marks after values point to notes of the source that are not given here. Square brackets hold non-standard residues; d marks the D form. Peptide text beside a SMILES is read from it.
Tests used:
soluble uPAR [1] = biological target: T1, soluble uPAR (Homo sapiens, UniProt Q03405); settings: for % Inhibition 2.5 uM: 2500.0; for % Inhibition 5 uM: 5000.0; for receptor binding activity, alanine scan of peptide 9: compared to peptide 9
soluble uPAR [2] = biological target: T1, soluble uPAR; type: binding; design: sUPAR, soluble truncated form of the urokinase receptor; made in house; host or cells: baculovirus-infected Sf9 insect cells; settings: for % Inhibition 2.5 uM: 2500.0; for % Inhibition 5 uM: 5000.0
Description: Streptavidin, 100 μl (0.1 mg/ml) in 50 mM Na2CO3, pH 9.6, was added to MaxiSorp wells (Nunc), incubated overnight at 4 C, and then washed with PBS/BSA. Biotinylated sUPAR (25 nM in PBS/BSA) was added to the wells and incubated for 2 hours at room temperature prior to washing. Competitive peptide inhibitors were added to the wells immediately prior to addition of the bacteriophage. The wells were incubated for one hour at room temperature, then washed and bound bacteriophage eluted with 6M urea in 0.1N HCl, pH 2.5. After 15 minutes, the urea eluate was brought to neutral pH by addition of 2M Tris base and the bacteriophage titers of input stocks and elutions measured by plaque formation assay. Results were expressed as the percent of input bacteriophage which bind to the wells. Alternatively, the amount of bacteriophage was determined in an ELISA where phage were preincubated with HRP-conjugated anti-M13 antibody for 30 minutes at room temperature before dispensing into wells prepared as above and incubated for one hour at room temperature. The final anti-M13 conjugate dilution was 1:4000. After washing, TMB substrate (100 μl/well) was added and color development was stopped with 0.8N H2SO4 (100 μl/well). The absorbance at 450 nm was then measured in a 96 well plate reader.
In a uPAR binding assay, the following analogs were tested in a competition with phage displaying either peptide 25 or peptide 9. The analogs comprise both natural and unnatural amino acids.
The analogs were tested in an assay utilizing soluble uPAR, similar to the method described in Example 2. The analogs were tested for their ability to compete with phage displaying either peptide 9 or peptide 25. Analogs 3–61 were tested in competition with peptide 25. Analogs 62–96 were tested in competition with peptide 9. Approximately 10^8 plaque forming units of the phage were used in the assay.
The analogs were tested at a concentration at 40 μM in the uPAR competition assay with phage displaying peptide 25. The results below show which analogs were active.
Analogs 31–61 were tested for their ability to compete with phage displaying peptide 25. The active analogs were tested further at two concentrations, 5 μM and 2.5 μM. These concentrations were calculated based on the synthesis reactions. However, the sequences * were further tested and determined to contain high amounts of amino acids and the quantity tested could have been higher than 5 μM or 2.5 μM.

T1 sequence (Q03405 23-305 limits assumed): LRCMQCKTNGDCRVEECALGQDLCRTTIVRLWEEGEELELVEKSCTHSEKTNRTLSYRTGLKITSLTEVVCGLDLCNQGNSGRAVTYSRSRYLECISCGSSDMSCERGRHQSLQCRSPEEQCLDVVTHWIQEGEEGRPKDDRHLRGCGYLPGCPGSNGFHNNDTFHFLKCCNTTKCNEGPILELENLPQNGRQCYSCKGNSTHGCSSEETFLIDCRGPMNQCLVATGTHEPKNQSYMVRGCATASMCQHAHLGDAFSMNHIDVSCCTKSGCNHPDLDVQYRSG

% Inhibition 2.5 uM (soluble uPAR [1]) | % Inhibition 5 uM (soluble uPAR [1]) [%] | receptor binding activity, alanine scan of peptide 9 (soluble uPAR [1]) | Molecule | other results
79% | 80 | – | CC(C)C[C@H](NC(=O)[C@H](CCCCN)NC(=O)[C@H](Cc1ccccc1)NC(=O)[C@H](Cc1ccccc1)NC(=O)[C@H](CCC(=O)O)NC(=O)[C@H](C)N)C(=O)NCC(=O)N1CCC[C@H]1C(=O)N[C@@H](CC(N)=O)C(=O)N[C@H](C)C(=O)N[C@@H](Cc1ccc(O)cc1)C(=O)N[C@H](C(=O)N[C@@H](Cc1ccc(O)cc1)C(=O)N[C@@H](CC(C)C)C(=O)N[C@@H](Cc1c[nH]cn1)C(=O)N[C@@H](CO)C(=O)N[C@@H](C)C(N)=O)C(C)C [Analog 81] (H-AEFFKLGPN[dA]YVYLHSA-NH2) | –
36% | 41 | – | CC(C)C[C@H](NC(=O)[C@H](CCCCN)NC(=O)[C@H](Cc1ccccc1)NC(=O)[C@H](Cc1ccccc1)NC(=O)[C@H](CCC(=O)O)NC(=O)[C@H](C)N)C(=O)NCC(=O)N1CCC[C@H]1C(=O)N[C@@H](CC(N)=O)C(=O)NCC(=O)N[C@@H](Cc1ccc(O)cc1)C(=O)N[C@H](C(=O)N[C@@H](Cc1ccc(O)cc1)C(=O)N[C@@H](CC(C)C)C(=O)N[C@H](Cc1c[nH]cn1)C(=O)N[C@@H](CO)C(=O)N[C@@H](C)C(N)=O)C(C)C [Analog 94] (H-AEFFKLGPNGYVYL[dH]SA-NH2) | –
38* % | 40 | – | CC(C)C[C@H](NC(=O)[C@H](CCCCN)NC(=O)[C@H](Cc1ccccc1)NC(=O)[C@H](Cc1ccccc1)NC(=O)[C@H](CCC(=O)O)NC(=O)[C@H](C)N)C(=O)NCC(=O)N1CCC[C@H]1C(=O)N[C@@H](CC(N)=O)C(=O)NCC(=O)N[C@@H](Cc1ccc(O)cc1)C(=O)N[C@H](C(=O)N[C@@H](Cc1ccc(O)cc1)C(=O)N[C@@H](CC(C)C)C(=O)N[C@@H](Cc1c[nH]cn1)C(=O)N[C@@H](CO)C(=O)N[C@H](C)C(N)=O)C(C)C [Analog 96] (H-AEFFKLGPNGYVYLHS[dA]-NH2) | –
89% | 95 | – | CC(C)C[C@H](NC(=O)[C@H](CCCCN)NC(=O)[C@H](Cc1ccccc1)NC(=O)[C@H](Cc1ccccc1)NC(=O)[C@H](CCC(=O)O)NC(=O)[C@H](C)N)C(=O)NCC(=O)N1CCC[C@H]1C(=O)N[C@@H](CC(N)=O)C(=O)N[C@H](CO)C(=O)N[C@@H](Cc1ccc(O)cc1)C(=O)N[C@H](C(=O)N[C@@H](Cc1ccc(O)cc1)C(=O)N[C@@H](CC(C)C)C(=O)N[C@@H](Cc1c[nH]cn1)C(=O)N[C@@H](CO)C(=O)N[C@@H](C)C(N)=O)C(C)C [Analog 80] (H-AEFFKLGPN[dS]YVYLHSA-NH2) | –
80* % | 76 | – | CC(C)C[C@H](NC(=O)[C@H](CCCCN)NC(=O)[C@H](Cc1ccccc1)NC(=O)[C@H](Cc1ccccc1)NC(=O)[C@H](CCC(=O)O)NC(=O)[C@H](C)N)C(=O)NCC(=O)N1CCC[C@@H]1C(=O)N[C@@H](CC(N)=O)C(=O)NCC(=O)N[C@@H](Cc1ccc(O)cc1)C(=O)N[C@H](C(=O)N[C@@H](Cc1ccc(O)cc1)C(=O)N[C@@H](CC(C)C)C(=O)N[C@@H](Cc1c[nH]cn1)C(=O)N[C@@H](CO)C(=O)N[C@@H](C)C(N)=O)C(C)C [Analog 88] (H-AEFFKLG[dP]NGYVYLHSA-NH2) | –
24* % | 41 | – | CC(C)C[C@H](NC(=O)[C@H](CCCCN)NC(=O)[C@H](Cc1ccccc1)NC(=O)[C@H](Cc1ccccc1)NC(=O)[C@H](CCC(=O)O)NC(=O)[C@@H](C)N)C(=O)NCC(=O)N1CCC[C@H]1C(=O)N[C@@H](CC(N)=O)C(=O)NCC(=O)N[C@@H](Cc1ccc(O)cc1)C(=O)N[C@H](C(=O)N[C@@H](Cc1ccc(O)cc1)C(=O)N[C@@H](CC(C)C)C(=O)N[C@@H](Cc1c[nH]cn1)C(=O)N[C@@H](CO)C(=O)N[C@@H](C)C(N)=O)C(C)C [Analog 82] (H-[dA]EFFKLGPNGYVYLHSA-NH2) | –
47% | 59 | – | CC(C)C[C@H](NC(=O)[C@H](CCCCN)NC(=O)[C@H](Cc1ccccc1)NC(=O)[C@H](Cc1ccccc1)NC(=O)[C@H](CCC(=O)O)NC(=O)[C@H](C)N)C(=O)NCC(=O)N1CCC[C@H]1C(=O)N[C@@H](CC(N)=O)C(=O)NCC(=O)N[C@@H](Cc1ccc(O)cc1)C(=O)N[C@H](C(=O)N[C@@H](Cc1ccc(O)cc1)C(=O)N[C@@H](CC(C)C)C(=O)N[C@@H](Cc1c[nH]cn1)C(=O)N[C@H](CO)C(=O)N[C@@H](C)C(N)=O)C(C)C [Analog 95] (H-AEFFKLGPNGYVYLH[dS]A-NH2) | –
44% | 59 | – | CC(C)C[C@H](NC(=O)[C@H](CCCCN)NC(=O)[C@H](Cc1ccccc1)NC(=O)[C@H](Cc1ccccc1)NC(=O)[C@@H](CCC(=O)O)NC(=O)[C@H](C)N)C(=O)NCC(=O)N1CCC[C@H]1C(=O)N[C@@H](CC(N)=O)C(=O)NCC(=O)N[C@@H](Cc1ccc(O)cc1)C(=O)N[C@H](C(=O)N[C@@H](Cc1ccc(O)cc1)C(=O)N[C@@H](CC(C)C)C(=O)N[C@@H](Cc1c[nH]cn1)C(=O)N[C@@H](CO)C(=O)N[C@@H](C)C(N)=O)C(C)C [Analog 83] (H-A[dE]FFKLGPNGYVYLHSA-NH2) | –
15% | 13 | – | CC(C)C[C@H](NC(=O)[C@H](CCCCN)NC(=O)[C@H](Cc1ccccc1)NC(=O)[C@H](Cc1ccccc1)NC(=O)[C@H](CCC(=O)O)NC(=O)[C@H](C)N)C(=O)NCC(=O)N1CCC[C@H]1C(=O)N[C@H](CC(N)=O)C(=O)NCC(=O)N[C@@H](Cc1ccc(O)cc1)C(=O)N[C@H](C(=O)N[C@@H](Cc1ccc(O)cc1)C(=O)N[C@@H](CC(C)C)C(=O)N[C@@H](Cc1c[nH]cn1)C(=O)N[C@@H](CO)C(=O)N[C@@H](C)C(N)=O)C(C)C [Analog 89] (H-AEFFKLGP[dN]GYVYLHSA-NH2) | –
8.5% | 3.3 | – | CC(C)C[C@H](NC(=O)[C@H](CCCCN)NC(=O)[C@H](Cc1ccccc1)NC(=O)[C@H](Cc1ccccc1)NC(=O)[C@H](CCC(=O)O)NC(=O)[C@H](C)N)C(=O)NCC(=O)N1CCC[C@H]1C(=O)N[C@@H](CC(N)=O)C(=O)NCC(=O)N[C@@H](Cc1ccc(O)cc1)C(=O)N[C@H](C(=O)N[C@H](Cc1ccc(O)cc1)C(=O)N[C@@H](CC(C)C)C(=O)N[C@@H](Cc1c[nH]cn1)C(=O)N[C@@H](CO)C(=O)N[C@@H](C)C(N)=O)C(C)C [Analog 92] (H-AEFFKLGPNGYV[dY]LHSA-NH2) | –

More lines, now with the values behind:

Molecule | % Inhibition 2.5 uM (soluble uPAR [1]) | % Inhibition 5 uM (soluble uPAR [1]) [%] | receptor binding activity, alanine scan of peptide 9 (soluble uPAR [1]) | other results
AAFFKLGPNGYVYLHSA [Analog 65] | – | – | decreased but did not destroy | –
CSCC[C@H](NC(=O)[C@H](Cc1ccc(O)cc1)NC(=O)CNC(=O)[C@H](CC(C)C)NC(=O)[C@H](CO)NC(=O)[C@H](CC(C)C)NC(=O)[C@H](Cc1c[nH]cn1)NC(=O)[C@H](Cc1c[nH]cn1)NC(=O)[C@H](Cc1ccc(O)cc1)NC(=O)[C@@H](NC(=O)[C@H](CO)NC(=O)[C@@H](CCC(=O)O)NC(=O)[C@H](C)N)[C@@H](C)O)C(=O)N[C@@H](Cc1ccc(O)cc1)C(=O)N[C@H](C(=O)N[C@@H](CC(C)C)C(=O)N[C@@H](CC(N)=O)C(N)=O)[C@@H](C)O [Analog 47] (H-A[dE]STYHHLSLGYMYTLN-NH2) | – | – | – | % Inhibition 2.5 uM (soluble uPAR [2]): 35%; % Inhibition 5 uM (soluble uPAR [2]): 61%
AEFAKLGPNGYVYLHSA [Analog 67] | – | – | decreased but did not destroy | –
AEFFKLGPNGAVYLHSA [Analog 74] | – | – | destroyed receptor binding activity | –
AEFFKLGPNGYAYLHSA [Analog 75] | – | – | destroyed receptor binding activity | –
CSCC[C@H](NC(=O)[C@H](Cc1ccc(O)cc1)NC(=O)CNC(=O)[C@@H](CC(C)C)NC(=O)[C@H](CO)NC(=O)[C@H](CC(C)C)NC(=O)[C@H](Cc1c[nH]cn1)NC(=O)[C@H](Cc1c[nH]cn1)NC(=O)[C@H](Cc1ccc(O)cc1)NC(=O)[C@@H](NC(=O)[C@H](CO)NC(=O)[C@H](CCC(=O)O)NC(=O)[C@H](C)N)[C@@H](C)O)C(=O)N[C@@H](Cc1ccc(O)cc1)C(=O)N[C@H](C(=O)N[C@@H](CC(C)C)C(=O)N[C@@H](CC(N)=O)C(N)=O)[C@@H](C)O [Analog 55] (H-AESTYHHLS[dL]GYMYTLN-NH2) | – | – | – | % Inhibition 2.5 uM (soluble uPAR [2]): 56%; % Inhibition 5 uM (soluble uPAR [2]): 80%
AEFFKAGPNGYVYLHSA [Analog 69] | – | – | destroyed receptor binding activity | –
AEFFKLGPNGYVALHSA [Analog 76] | – | – | destroyed receptor binding activity | –
AEFFKLGPNGYVYAHSA [Analog 77] | – | – | decreased but did not destroy | –

— patent publication US7094752B2 (Chiron Corporation, priority 1997, dated 2006)
